Laboratory results as given in paper PMC10376326, “Novel Acylselenourea Derivatives: Dual Molecules with Anticancer and Radical Scavenging Activity” (Antioxidants, 2023).

How the values were obtained:
[1] = tested on: MDA-MB-231, HT-29, HTB-54 and DU-145 cancer cell lines; experiment: MTT cell viability assay, statements over the panel of cancer cell lines; format: cell-based, human; details: in at least three of the four cancer cell lines tested
Description: (§1) Cell lines were purchased from the American Type Culture Collection (ATCC). Cell lines MDA-MB-231, HTB-54, DU-145, and BEAS-2B were cultured in RPMI 1640 medium (Gibco, Thermo Fisher Scientific, Gaithersburg, MD, USA) supplemented with 10% fetal bovine serum (FBS; Gibco), 100 units/mL penicillin, and […] streptomycin (Gibco). HT-29 cell line was grown in McCoy’s 5A (Gibco), 10% FBS, 100 units/mL penicillin, and 100 μg/mL streptomycin. Cells were maintained at 37 °C and 5% CO2. The culture medium was changed every three days.
(§2) The cell viability of each compound was measured by MTT colorimetric assay. Each compound was dissolved in DMSO at a concentration of 0.01 M. Each compound was tested at two different concentrations (10 and 50 µM) in MDA-MB-231 (breast), HTB-54 (lung), DU-145 (prostate), and HT-29 (colon) human cancer cell lines. Serial dilutions were prepared with supplemented culture medium. […] IC50 and selectivity indexes (SI) were determined.
(§3) Briefly, 1 × 10^4 tumor cells per well were grown in 96-well plates for 24 h. Then, these cells were incubated for 48 h with either DMSO (control) or a different concentration of each of the tested compounds. The cell viability was determined by adding 20 μL of MTT two hours and a half before the termination point. After this time, the culture medium was removed. The resulting formazan crystals were dissolved in 50 μL of DMSO, and the absorbance was measured at 570 nm. Results are expressed as % cell growth. The data were obtained from at least three independent experiments performed in quadruplicate.

[2] = tested on: DU-145 (prostate) cancer cell line; experiment: MTT cell viability assay, DU-145; format: cell-based, human; details: Homo sapiens, DU-145, 48 h; for activity at 10 µM: read-out: Cell growth %, DU-145, 10 µM, 48 h, MTT; for activity at 50 µM: read-out: Cell growth %, DU-145, 50 µM, 48 h, MTT
Summary of the method: (§4)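 MDA-MB-231, HTB-54 and DU-145 grown in RPMI 1640, HT-29 in McCoy's 5A (10% FBS). Output is % cell growth; IC50 determined; ≥3 experiments in quadruplicate.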

[3] = tested on: HTB-54 (lung) cancer cell line; experiment: MTT cell viability assay, HTB-54; format: cell-based, human; details: for activity at 10 µM / activity at 50 µM / IC50: Homo sapiens, HTB-54, 48 h; for activity at 10 µM: read-out: Cell growth %, HTB-54, 10 µM, 48 h, MTT; for activity at 50 µM: read-out: Cell growth %, HTB-54, 50 µM, 48 h, MTT; for IC50: read-out: IC50 HTB-54, Lung, MTT, 48 h; for SI: IC50 (BEAS-2B)/IC50 (HTB-54)
[4] = tested on: MDA-MB-231 (breast) cancer cell line; experiment: MTT cell viability assay, MDA-MB-231; format: cell-based, human; details: Homo sapiens, MDA-MB-231, 48 h; for activity at 10 µM: read-out: Cell growth %, MDA-MB-231, 10 µM, 48 h, MTT; for activity at 50 µM: read-out: Cell growth %, MDA-MB-231, 50 µM, 48 h, MTT
Summary of the method: as §4

DU-145 cells = experiment: Protective effects against H2O2-induced oxidative stress in DU-145 cells (MTT); format: cell-based, human; details: increase-fold of cell survival
Description: Cells were treated with the selected compounds and then oxidative damage to DU-145 cells was induced using different concentrations of H2O2 (200, 250 and 300 µM), and cell viability was assessed by the MTT method. Briefly, 2.5 × 10^4 DU-145 cells per well were added in 96-well plates. After 24 h of incubation, DMSO, 1.I, 2.I, 5.I, 7.II, 10.II, and ascorbic acid were added to each well at two different concentrations (0.0015 mg/mL and 0.0003 mg/mL) and incubated for 1 h. After that, H2O2 was added at the concentrations of 200, 250, and 300 µM, and the cells were incubated for 12 h to induce cell damage. MTT assay was used to measure cell viability. For each treatment, the mean cell viability was calculated from three independent experiments. The DMSO-treated controls were assigned with a cell viability value of 100% (Vcontrol). The results are expressed as a cell growth inhibition % caused by H2O2 and the increased fold of cell survival, as follows: • Cells without compounds, only treated with H2O2: (2) % Cell growth inhibition=Acontrol - Asample/Acontrol × 100
• Cells treated with compounds and H2O2:
(3) % Cell growth inhibition=Asample (compound) - Asample (compound+H2O2)/Acontrol × 100
(4) Increase-fold of cell survival=% cell growth inhibition (H2O2)/% cell growth inhibition (compound+ H2O2)
The standard error of the mean (SEM) was calculated in at least three independent experiments performed in quadruplicates.

[5] = tested on: non-malignant BEAS-2B lung cell line; experiment: MTT cell viability assay, BEAS-2B; format: cell-based; details: Homo sapiens, normal lung, 48 h
Description: as §1, §2, §3

[6] = tested on: HT-29 (colon) cancer cell line; experiment: MTT cell viability assay, HT-29; format: cell-based; details: Homo sapiens, HT-29, 48 h, read-out: Cell growth %; for activity at 10 µM: HT-29, 10 µM; for activity at 50 µM: HT-29, 50 µM
Summary of the method: as §4

[7] = DPPH radical scavenging assay; format: biochemical; details: for DPPH Inhibitory%: acylselenourea analogs
Summary of the method: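 Acylselenoureas at 0.003 and 0.03 mg/mL (final dilutions from DMSO stock, via methanol) mixed with DPPH• prepared at 0.04 mg/mL in methanol. Absorbance decrease at 517 nm followed 0–120 min; % scavenging calculated relative to negative control, triplicates.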

[8] = compound 0.0003 mg/mL, 200 µM H2O2, DU-145
[9] = compound 0.0003 mg/mL, 250 µM H2O2, DU-145
[10] = compound 0.0003 mg/mL, 300 µM H2O2, DU-145
[11] = compound 0.0015 mg/mL, 200 µM H2O2, DU-145
[12] = compound 0.0015 mg/mL, 250 µM H2O2, DU-145
[13] = compound 0.0015 mg/mL, 300 µM H2O2, DU-145

| Compound | activity at 10 µM [2] | activity at 50 µM [2] | activity at 10 µM [3] | activity at 50 µM [3] | SI [3] | activity at 10 µM [4] | activity at 50 µM [4] | IC50 [5] | activity at 10 µM [6] | activity at 50 µM [6] | inhibition ([7]; 0.003 mg/mL, 0 min) | inhibition ([7]; 0.003 mg/mL, 5 min) | inhibition ([7]; 0.003 mg/mL, 15 min) | inhibition ([7]; 0.003 mg/mL, 30 min) | inhibition ([7]; 0.003 mg/mL, 60 min) | inhibition ([7]; 0.003 mg/mL, 90 min) | inhibition ([7]; 0.003 mg/mL, 120 min) | inhibition ([7]; 0.03 mg/mL, 0 min) | inhibition ([7]; 0.03 mg/mL, 5 min) | inhibition ([7]; 0.03 mg/mL, 15 min) | further results |
| --- | --- | --- | --- | --- | --- | --- | --- | --- | --- | --- | --- | --- | --- | --- | --- | --- | --- | --- | --- | --- | --- |
| CCCNC(=[Se])NC(=O)c1cccs1 [Compound 2.I, N-(propylcarbamoselenoyl)thiophene-2-carboxamide] | 54.5 ± 8.4% | 50.2 ± 2% | 92.3 ± 6.2% | 71.8 ± 4.4% | 0.6 | 32.8 ± 7.2% | 15.2 ± 8.8% | 5.3 ± 0.6 µM | 48.4 ± 13.8% | 32.7 ± 6.9% | 0% | 4.9 ± 3.6% | 8.2 ± 3.3% | 11.4 ± 2.7% | 16 ± 3.4% | 17 ± 2.2% | 17.8 ± 2.2% | 2.5 ± 0.6% | 12.8 ± 1.8% | 36.2 ± 0.1% | cell growth [1]: below 55%; IC50 [3]: 8.6 ± 1.1 µM; Increase-fold (DU-145 cells; [8]): 0.8 ± 0.2; Increase-fold (DU-145 cells; [9]): 0.9 ± 0.2; Increase-fold (DU-145 cells; [10]): 1.0 ± 0.3; Increase-fold (DU-145 cells; [11]): 2.9 ± 1.5; Increase-fold (DU-145 cells; [12]): 3.1 ± 1.3; Increase-fold (DU-145 cells; [13]): 2.9 ± 1.2; time to reach the highest DPPH inhibition ([7]; 0.03 mg/mL): 60 min; inhibition ([7]; 0.03 mg/mL, 30 min): 59 ± 3%; inhibition ([7]; 0.03 mg/mL, 60 min): 90.7 ± 5.7%; inhibition ([7]; 0.03 mg/mL, 90 min): 95.5 ± 0.2%; inhibition ([7]; 0.03 mg/mL, 120 min): 95.5 ± 0.3% |
| C=CCNC(=[Se])NC(=O)c1cccnc1 [Compound 7.II, N-(allylcarbamoselenoyl)nicotinamide] | 50.6 ± 2.4% | 8.95 ± 4.9% | 21.4 ± 8.2% | 10.2 ± 5.8% | 0.5 | 33.9 ± 6.7% | 10.5 ± 7% | 6.3 ± 1.5 µM | 110 ± 19.4% | 19 ± 3.6% | 3.6 ± 2.3% | 12 ± 2.2% | 16.8 ± 1.3% | 18.9 ± 1.3% | 20.3 ± 1.2% | 20.7 ± 1.3% | 20.7 ± 1.3% | 56.3 ± 6.2% | 90 ± 1.3% | 95.7 ± 0.4% | cell growth [1]: below 55%; IC50 [3]: 12 ± 2.7 µM; Increase-fold (DU-145 cells; [8]): 2.3 ± 1.2; Increase-fold (DU-145 cells; [9]): 1.6 ± 0.2; Increase-fold (DU-145 cells; [10]): 1.8 ± 0.4; Increase-fold (DU-145 cells; [11]): 1.5 ± 0.2; Increase-fold (DU-145 cells; [12]): 1.2 ± 0.3; Increase-fold (DU-145 cells; [13]): 1.4 ± 0.3; time to reach the highest DPPH inhibition ([7]; 0.03 mg/mL): 5 min; DPPH Inhibitory% ([7]; 0.03 mg/mL, 90 min): 96.2 ± 0.2% |
| C#CCNC(=[Se])NC(=O)c1ccc2c(c1)OCO2 [Compound 8.III, N-(prop-2-in-1-ylcarbamoselenoyl)benzo[d][1,3]dioxole-5-carboxamide] | 63 ± 4.8% | 12.3 ± 7.8% | 34.5 ± 9.1% | 31.6 ± 6.1% | >4.6 | 61.9 ± 13.5% | 19.1 ± 9.6% | > 100 µM | 40.3 ± 8.3% | 18.1 ± 5.3% | 1.1 ± 2.3% | 2.4 ± 2.2% | 4.4 ± 2% | 6.2 ± 1.9% | 8.3 ± 1.8% | 9.2 ± 1.8% | 9.7 ± 1.8% | 6.4 ± 2.5% | 17.9 ± 0.9% | 32.8 ± 0.9% | IC50 [3]: 21.7 ± 4.1 µM; inhibition ([7]; 0.03 mg/mL, 30 min): 45.2 ± 2%; inhibition ([7]; 0.03 mg/mL, 60 min): 59.7 ± 3.8%; inhibition ([7]; 0.03 mg/mL, 120 min): 72.5 ± 8.1%; DPPH Inhibitory% ([7]; 0.03 mg/mL, 90 min): 62.4 ± 3.1% |
| C=CCNC(=[Se])NC(=O)c1cccc(C(=O)NC(=[Se])NCC=C)c1 [Compound 10.II, N^1,N^3-bis(allylcarbamoselenoyl)isophthalamide] | 18.1 ± 2.7% | 18.8 ± 3.1% | 52.6 ± 10.5% | 43.5 ± 17.6% | 0.7 | 24.8 ± 6.1% | 21 ± 9.4% | 29.9 ± 5 µM | 47.8 ± 8.7% | 46.4 ± 4.8% | 0.9 ± 1.8% | 6.7 ± 1.7% | 11.5 ± 1.5% | 14.7 ± 1.2% | 17.7 ± 1.1% | 19 ± 0.9% | 19.7 ± 0.9% | 31.6 ± 4.1% | 69.1 ± 0.1% | 86.3 ± 0.9% | cell growth [1]: below 55%; Increase-fold (DU-145 cells; [8]): 0.8 ± 0.4; Increase-fold (DU-145 cells; [9]): 1.0 ± 0.3; Increase-fold (DU-145 cells; [10]): 1.0 ± 0.2; Increase-fold (DU-145 cells; [11]): 1.0 ± 0.6; Increase-fold (DU-145 cells; [12]): 1.1 ± 0.2; Increase-fold (DU-145 cells; [13]): 1.1 ± 0.2; time to reach the highest DPPH inhibition ([7]; 0.03 mg/mL): 60 min; inhibition ([7]; 0.03 mg/mL, 30 min): 94.4 ± 0.7%; inhibition ([7]; 0.03 mg/mL, 60 min): 96.1 ± 0.1%; inhibition ([7]; 0.03 mg/mL, 90 min): 96 ± 0.2%; inhibition ([7]; 0.03 mg/mL, 120 min): 96 ± 0.3% |
